Measured values published in US20120058989A1, “ANTIBACTERIAL FLUOROQUINOLONE ANALOGS” (Achaogen, Inc., priority 2008, published 2012).

Key:
Assay in all cases: MIC, CLSI broth microdilution
Type in all cases: cell-based
[1] = test system: P. aeruginosa APAE054 (Fluoroquinolone-resistant); conditions: Table 2
Summary of the method: (§1)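 CLSI M7-A7 broth microdilution in Mueller Hinton Broth using two-fold compound serial dilutions. Inoculum was prepared from the previous day's agar colonies at a final 5×10^5 CFU/mL. Plates were incubated at 35° C for 20 hours in ambient air.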

[2] = test system: S. pneumoniae ASPN1027 (Fluoroquinolone-resistant); conditions: Table 2
Summary of the method: as §1

[3] = test system: E. coli AECO066 (Fluoroquinolone-resistant); conditions: Table 2
Summary of the method: as §1

[4] = test system: S. pneumoniae ASPN001 (Fluoroquinolone-susceptible, ATCC49619); conditions: Table 2
Summary of the method: as §1

[5] = test system: P. aeruginosa APAE001 (Fluoroquinolone-susceptible, ATCC27853); conditions: Table 2
Summary of the method: as §1

[6] = test system: A. baumannii AABA1009 (Fluoroquinolone-resistant); conditions: Table 2
Summary of the method: as §1

[7] = test system: E. coli AECO001 (Fluoroquinolone susceptible, ATCC25922); conditions: Table 2, 35° C., 20 hours
Summary of the method: as §1

[8] = test system: S. aureus ASAU001 (Fluoroquinolone-susceptible, ATCC29213); conditions: Table 2
Summary of the method: as §1

[9] = test system: A. baumannii AABA1065 (Fluoroquinolone-susceptible); conditions: Table 2
Summary of the method: as §1

[10] = test system: S. aureus ASAU1031 (Fluoroquinolone-resistant); conditions: Table 2
Summary of the method: as §1

In the case of `O=C(O)c1cn(C2CC2)c2c3c(c(F)cc2c1=O)N1CCCC1CC=C3` (stereo not drawn) [27/5, 4-Cyclopropyl-12-fluoro-1-oxo-4,7,7a,8,9,10-hexahydro-1H-pyrrolo[1′,2′:1,7]azepino[2,3-h]quinoline-2-carboxylic acid], the “MIC APAE 054” value [1] is reported as “C (MIC's of greater than 8.0 μg/mL = C)”, the “MIC ASPN 1027” value [2] is reported as “C (MIC's of greater than 8.0 μg/mL = C)” and the “MIC AECO 066” value [3] is reported as “C (MIC's of greater than 8.0 μg/mL = C)”. For the same compound, the “MIC ASPN 001” value [4] was “A (MIC's of 1.0 μg/mL or less = A)”, the “MIC APAE 001” value [5] was “C (MIC's of greater than 8.0 μg/mL = C)” and the “MIC AABA 1009” value [6] was “C (MIC's of greater than 8.0 μg/mL = C)”. For the same compound, the “MIC AECO 001” value [7] was “A (MIC's of 1.0 μg/mL or less = A)”, the “MIC ASAU 001” value [8] was “A (MIC's of 1.0 μg/mL or less = A)” and the “MIC AABA 1065” value [9] was “B (MIC's of greater than 1.0 μg/mL to 8.0 μg/mL = B)”. For the same compound, the “MIC ASAU 1031” value [10] was “B (MIC's of greater than 1.0 μg/mL to 8.0 μg/mL = B)”.

`O=C(O)c1cn(C2CC2)c2c3c(c(F)cc2c1=O)N1CCCC1C(=O)NC3` (stereo not drawn) [10/6, 13-Cyclopropyl-8-fluoro-3,10-dioxo-2,3,3a,4,5,6,10,13-octahydro-1H-pyrrolo[2′,1′:3,4][1,4]diazepino[5,6-h]quinoline-1′-carboxylic acid] was tested, and the “MIC APAE 054” value [1] was “C (MIC's of greater than 8.0 μg/mL = C)”, the “MIC ASPN 1027” value [2] was “B (MIC's of greater than 1.0 μg/mL to 8.0 μg/mL = B)” and the “MIC AECO 066” value [3] was “C (MIC's of greater than 8.0 μg/mL = C)”. The “MIC ASPN 001” value [4] was “A (MIC's of 1.0 μg/mL or less = A)”, the “MIC APAE 001” value [5] was “B (MIC's of greater than 1.0 μg/mL to 8.0 μg/mL = B)” and the “MIC AABA 1009” value [6] was “C (MIC's of greater than 8.0 μg/mL = C)”. The “MIC AECO 001” value [7] was “A (MIC's of 1.0 μg/mL or less = A)”, the “MIC ASAU 001” value [8] was “A (MIC's of 1.0 μg/mL or less = A)” and the “MIC AABA 1065” value [9] was “B (MIC's of greater than 1.0 μg/mL to 8.0 μg/mL = B)”. The “MIC ASAU 1031” value [10] was “B (MIC's of greater than 1.0 μg/mL to 8.0 μg/mL = B)”.

`O=C(O)c1cn(C2CC2)c2c3c(c(F)cc2c1=O)N1CCCC1CC(=NO)C3` (stereo not drawn) [27/12, 4-Cyclopropyl-12-fluoro-6-(hydroxyimino)-1-oxo-4,5,6,7,7a,8,9,10-octahydro-1H-pyrrolo[1′,2′:1,7]azepino[2,3-h]quinoline-2-carboxylic acid] was tested, and the “MIC APAE 054” value [1] was “C (MIC's of greater than 8.0 μg/mL = C)”, the “MIC ASPN 1027” value [2] was “C (MIC's of greater than 8.0 μg/mL = C)” and the “MIC AECO 066” value [3] was “C (MIC's of greater than 8.0 μg/mL = C)”. The “MIC ASPN 001” value [4] was “B (MIC's of greater than 1.0 μg/mL to 8.0 μg/mL = B)”, the “MIC APAE 001” value [5] was “C (MIC's of greater than 8.0 μg/mL = C)” and the “MIC AABA 1009” value [6] was “C (MIC's of greater than 8.0 μg/mL = C)”. For the same compound, the “MIC AECO 001” value [7] was “B (MIC's of greater than 1.0 μg/mL to 8.0 μg/mL = B)”, the “MIC ASAU 001” value [8] was “A (MIC's of 1.0 μg/mL or less = A)” and the “MIC AABA 1065” value [9] was “B (MIC's of greater than 1.0 μg/mL to 8.0 μg/mL = B)”. The “MIC ASAU 1031” value [10] was “B (MIC's of greater than 1.0 μg/mL to 8.0 μg/mL = B)”.
